Source: PMC11460631, “Inhibition of transient receptor potential vanilloid 3 channels by antimalarial hydroxychloroquine alleviates TRPV3-dependent dermatitis” (The Journal of Biological Chemistry, 2024)

Biological target: T1, TRPV3 (Homo sapiens, UniProt Q8NET8)
T1 construct: YFP or GFP; expressed in transfected cells; host or cells: HEK293T
T1 sequence (Q8NET8 1-790): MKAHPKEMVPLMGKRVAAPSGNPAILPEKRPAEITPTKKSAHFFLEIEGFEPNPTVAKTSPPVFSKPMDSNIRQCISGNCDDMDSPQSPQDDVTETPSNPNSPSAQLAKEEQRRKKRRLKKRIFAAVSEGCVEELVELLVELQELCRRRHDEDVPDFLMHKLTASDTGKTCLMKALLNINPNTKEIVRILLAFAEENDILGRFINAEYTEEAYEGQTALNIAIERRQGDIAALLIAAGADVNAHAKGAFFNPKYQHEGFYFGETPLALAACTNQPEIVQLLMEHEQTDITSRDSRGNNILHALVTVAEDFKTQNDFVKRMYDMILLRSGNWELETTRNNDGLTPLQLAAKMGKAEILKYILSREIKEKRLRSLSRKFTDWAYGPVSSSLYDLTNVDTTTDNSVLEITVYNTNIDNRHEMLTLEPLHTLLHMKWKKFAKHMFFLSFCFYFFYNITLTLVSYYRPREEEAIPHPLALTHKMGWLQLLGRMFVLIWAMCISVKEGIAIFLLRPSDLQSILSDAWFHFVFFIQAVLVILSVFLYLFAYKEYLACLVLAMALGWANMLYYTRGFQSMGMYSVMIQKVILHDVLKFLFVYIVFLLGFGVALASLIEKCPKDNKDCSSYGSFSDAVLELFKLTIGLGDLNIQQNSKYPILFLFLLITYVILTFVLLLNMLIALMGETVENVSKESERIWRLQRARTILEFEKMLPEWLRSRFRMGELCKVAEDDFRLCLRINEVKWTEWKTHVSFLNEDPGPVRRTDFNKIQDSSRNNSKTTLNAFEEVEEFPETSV
Assay: Calcium imaging (Fluo-4/AM) of TRPV3-expressing HEK293T cells
Type: cell-based
Experimental: HEK293T cells are cultured using Dulbecco's modified Eagle's medium containing 10% fetal bovine serum and 1% penicillin-streptomycin in a cell incubator with 5% CO2 at 37 °C. Plasmids of murine TRPV1, TRPV4, TRPM8, and human TRPV3, TRPA1 are labeled with YFP or GFP as indicators for subsequent electrophysiological recordings. Complementary DNA constructs of ion channels were transiently transfected with Lipofectamine 3000 (Invitrogen). And 12 to 18 h after transient transfection, electrophysiological recordings were performed.
Calcium imaging assays were performed as described previously ([37]). Transiently transfected HEK293 cells seeded on 25 mm coverslips were washed twice with an extracellular solution containing 140 mM NaCl, 5 mM KCl, 2 mM MgCl2, 2 mM CaCl2, 10 mM glucose, and 10 mM Hepes (pH 7.4), followed by incubation in 2 ml of extracellular solution supplemented with 2 μM Fluo-4/AM as a Molecular Probes at room temperature for 60 min. Fluorescence images of HEK293T cells were acquired with a Nikon Eclipse Ti2 microscope with an optiMOS charge-coupled device camera controlled by the Ocular Software ([…]; https://www.photometrics.com/products/ocular).

calcium influx, area under the curve (AUC) (100 μM HCQ mixed with 1 mM 2-APB): 8.65 ± 0.83
calcium influx, area under the curve (AUC) (300 μM HCQ mixed with 1 mM 2-APB): 0.28 ± 0.05
Compound: CCN(CCO)CCCC(C)Nc1ccnc2cc(Cl)ccc12 (centres unmarked) [HCQ, hydroxychloroquine]
